Consider 4 compounds from ChEMBL document CHEMBL1629422, “Synthesis and antimicrobial evaluation of some fused heterocyclic [1,2,4]triazolo[3,4-b][1,3,4]thiadiazole derivatives” (2010).

≈ marks a conversion by molar mass, not a printed value.

What all share (type): functional
Test [1] concerns Bacillus cereus. The test can be described thus: Antimicrobial activity against Bacillus cereus ATCC 13061 after18 to 20 hrs by broth dilution method.
Test [2] relates to Pseudomonas aeruginosa. The test can be described thus: Antimicrobial activity against Pseudomonas aeruginosa ATCC 27853 after18 to 20 hrs by broth dilution method. A general note: Broth dilution looks for growth in wells or tubes with falling amounts of substance.
Test [3] has as its system Staphylococcus epidermidis. The test can be described thus: Antimicrobial activity against Staphylococcus epidermidis ATCC 14990 after18 to 20 hrs by broth dilution method.
Test [4] has as its system Candida albicans. The test can be described thus: Antimicrobial activity against Candida albicans ATCC 90028 after 48 hrs by broth dilution method. The settings on record: ATCC 90028, 48 h.
Test [5] deals with Acinetobacter baumannii. The test can be described thus: Antimicrobial activity against Acinetobacter baumannii ATCC 19606 after18 to 20 hrs by broth dilution method.
Test [6] concerns Enterococcus faecalis. The test can be described thus: Antimicrobial activity against Enterococcus faecalis ATCC 29212 after18 to 20 hrs by broth dilution method.
Test [7] deals with Staphylococcus aureus. The test can be described thus: Antimicrobial activity against Staphylococcus aureus ATCC 25923 after18 to 20 hrs by broth dilution method.
The subject of test [8] is Escherichia coli. The test can be described thus: Antimicrobial activity against Escherichia coli ATCC 25922 after18 to 20 hrs by broth dilution method.
In test [9] the test system is Enterobacter cloacae. The test can be described thus: Antimicrobial activity against Enterobacter cloacae ATCC 49141 after18 to 20 hrs by broth dilution method.
Test [10] concerns Citrobacter freundii. The test can be described thus: Antimicrobial activity against Citrobacter freundii ATCC 8090 after18 to 20 hrs by broth dilution method.

Regarding `O=S(=O)(c1ccc(Br)cc1)c1ccc(-c2nnc3sc(-c4ccc(Br)cc4)nn23)cc1`, the minimum inhibitory concentration (MIC) (commonly the lowest concentration found to suppress growth) was 1020 µg/mL (≈ 1780 µM) in [1]; 256 µg/mL (≈ 444 µM) in test [2]; 64 µg/mL (≈ 111 µM) in [3]; 128 µg/mL (≈ 222 µM) in [4]; 256 µg/mL (≈ 444 µM) in [5]; 128 µg/mL (≈ 222 µM) in test [6]. Moreover, the MIC came to 256 µg/mL (≈ 444 µM) in test [7], 256 µg/mL (≈ 444 µM) in [8], 256 µg/mL (≈ 444 µM) in test [9] and 128 µg/mL (≈ 222 µM) in test [10].

On to `O=S(=O)(c1ccc(Br)cc1)c1ccc(-c2nnc3sc(Nc4ccc(Br)cc4)nn23)cc1`, for which the MIC in test [1] came out at 1020 µg/mL (≈ 1730 µM); in [2], 512 µg/mL (≈ 866 µM); in [3] it was 512 µg/mL (≈ 866 µM); in [4] it was 128 µg/mL (≈ 216 µM); in test [5] it was 512 µg/mL (≈ 866 µM); in test [6], 128 µg/mL (≈ 216 µM). In addition, the MIC in [7] came to 512 µg/mL (≈ 866 µM); in test [8], 128 µg/mL (≈ 216 µM); in test [9], 512 µg/mL (≈ 866 µM); in test [10] it was 1020 µg/mL (≈ 1730 µM).

As for `Cc1ccc(Nc2nn3c(-c4ccc(S(=O)(=O)c5ccccc5)cc4)nnc3s2)cc1`, the MIC in test [1] was 1020 µg/mL (≈ 2290 µM); in test [2] it was 512 µg/mL (≈ 1140 µM); in test [3], 512 µg/mL (≈ 1140 µM); in [4], 256 µg/mL (≈ 572 µM); in test [5], 128 µg/mL (≈ 286 µM); in test [6], 512 µg/mL (≈ 1140 µM). The MIC in [7] turned out to be 1020 µg/mL (≈ 2290 µM); in test [8] it was 256 µg/mL (≈ 572 µM); in test [9], 512 µg/mL (≈ 1140 µM); in [10], 1020 µg/mL (≈ 2290 µM).

Consider `O=S(=O)(c1ccc(Br)cc1)c1ccc(-c2nnc3sc(-c4cc(O)c(O)c(O)c4)nn23)cc1`, for which the minimum inhibitory concentration (MIC) in [1] was 256 µg/mL (≈ 469 µM); in [2], 128 µg/mL (≈ 235 µM); in test [3], 128 µg/mL (≈ 235 µM); in test [4], 512 µg/mL (≈ 939 µM); in [5], 128 µg/mL (≈ 235 µM); in test [6], 64 µg/mL (≈ 117 µM). Moreover, the MIC in [7] was found to be 256 µg/mL (≈ 469 µM); in [8], 128 µg/mL (≈ 235 µM); in test [9], 256 µg/mL (≈ 469 µM); in test [10], 128 µg/mL (≈ 235 µM).
